The NIST ThermoML archive (doi:10.1016/j.fluid.2012.11.026)
Numbers after ± are expanded uncertainties.

Settings: Liquid, Closed cell (Static) method

With `CCOC(=O)OCC` [diethyl carbonate] the “vapor or sublimation pressure” value (353.15 K) was 20.74 ± 2.2 kPa and the “vapor or sublimation pressure” value (363.15 K) was 30.23 ± 3.1 kPa.
For `CCO` [ethanol], the “vapor or sublimation pressure” value (353.15 K) was 108.14 ± 11 kPa and the “vapor or sublimation pressure” value (363.15 K) was 156.04 ± 16 kPa.
With `O` [water] the “vapor or sublimation pressure” value (353.15 K) was 47.33 ± 4.8 kPa and the “vapor or sublimation pressure” value (363.15 K) was 70.07 ± 7 kPa.
